Consider 16 compounds from US20220064138A1, “MACROLIDE BREFELDIN A ESTER DERIVATIVES AND USE THEREOF” (OCEAN UNIVERSITY OF CHINA, priority 2019, published 2022).

Holding throughout (experiment): Cell proliferation assay (CCK-8)
Holding throughout (assay type): cell-based

The subject of assay [1] is human lung cancer A549 cells. The settings on record: A549, 72 h. From the text: (§1) CCK-8 method: The CCK-8 method is a highly sensitive, non-radioactive colorimetric assay for the determination of the number of viable cells in cell proliferation or cytotoxicity assays. The orange formazan dye produced by the bioreduction of CCK-8 by intracellular dehydrogenase is soluble in the cell culture medium, and the amount of formazan dye produced is proportional to the number of living cells. The kit used in this method is the tetrazolium salt-WST-8 (2-(2-methoxy-4-nitrophenyl)-3-(4-nitrophenyl)-5-(2,4-disulfophenyl)-2H-tetrazolium monosodium salt) developed by Dojindo Chemical Research Institute (Dojindo), which is capable of being reduced to a water-soluble formazan dye in the presence of the electronic carrier 1-Methoxy PMS.
(§2) Human cervical cancer Hela cells, pancreatic cancer PANC-1 cells, esophageal cancer Eca-109 cells, human leukemia K562 cells, human lung cancer A549 cells, human liver cancer HepG2 cells, human gastric cancer MKN-45 cells, human breast cancer MCF7 cells were cultured in DMEM medium containing 10% FBS (fetal bovine serum), 100 U/mL penicillin and 100 μg/ml streptomycin. Hepatocellular carcinoma cells Bel-7402 were cultured in RPMI-1640 medium containing 10% FBS (fetal bovine serum), 100 U/ml penicillin and 100 μg/ml streptomycin. All cells were placed in a cell culture incubator at 37° C. with 5% CO2. Cells fluid was changed every 3-5 days, and after 80% cell fusion, trypsin digestion and passaging were performed to keep the cells in good logarithmic growth phase.
(§3) All the samples to be tested were dissolved in DMSO.
(§4) Cells in logarithmic growth phase were inoculated in 96-well plates with 5000 cells/well respectively, and after 24 h of incubation, samples were added (final concentrations as shown in the table), and biplicate wells were set up for each sample. The amount of solvent of DMSO was not higher than 2‰. After 72 h, 10 μL of CCK-8 solution was added to each well and incubated for 1.5˜3 h at 37° C. The OD value at 450 nm was measured on an plate reader.
(§5) Inhibition rate (%)=(1−[(OD450 dosed well−OD450 blank well)/(OD450 control well−OD450 blank well)])×100%
(§6) The fitted IC50 values were calculated using the log (inhibitor) vs. response-Variable slop analysis method in GraphPad Prism software.

For assay [2], the system named is human liver cancer HepG2 cells. The note with it: HepG2, 72 h.
Source text: as §1, §2, §3, §4, §5, §6

Assay [3] has as its system human breast cancer MCF7 cells. The note with it: MCF7, 72 h.
Source text: as §1, §2, §3, §4, §5, §6

Assay [4] deals with human gastric cancer MKN-45 cells. The settings on record: MKN-45, 72 h.
Source text: as §1, §2, §3, §4, §5, §6

The subject of assay [5] is pancreatic cancer PANC-1 cells. The note with it: Homo sapiens, PANC-1, 72 h.
Source text: as §1, §2, §3, §4, §5, §6

Assay [6] relates to human leukemia K562 cells. The note with it: K562, 72 h.
Source text: as §1, §2, §3, §4, §5, §6

For assay [7], the system named is esophageal cancer Eca-109 cells. The settings on record: Homo sapiens, Eca-109, 72 h.
Source text: as §1, §2, §3, §4, §5, §6

In assay [8] the test system is Human cervical cancer Hela cells. The settings on record: 72 h.
Source text: as §1, §2, §3, §4, §5, §6

By IC50 is commonly meant the concentration that gives 50% inhibition. Read a high IC50 as weaker potency in that assay.

Each structure is given as a SMILES string.

Consider `C[C@H]1CCC/C=C/[C@@H]2C[C@H](OC(=O)/C=C/c3ccccc3F)C[C@H]2[C@H](O)/C=C/C(=O)O1` [Compound 2a, 7-O-(2-fluorocinnamic acid)acyl BFA], for which the half-maximal inhibitory concentration (IC50) in assay [1], in assay [2], in assay [3], in assay [4], in assay [5] and in assay [6] was 100 to 1000 nM in each case. Besides, the half-inhibitory concentration (IC50) in assay [7] and in assay [8] was 1000 to 10000 nM in each case.

For `C[C@H]1CCC/C=C/[C@@H]2C[C@H](O)C[C@H]2[C@H](OC(=O)/C=C/c2ccccc2F)/C=C/C(=O)O1` [Compound 2b, 4-O-(2-fluorocinnamic acid)acyl BFA], the IC50 in assay [1], in assay [2], in assay [3], in assay [4], in assay [5] and in assay [6] was 100 to 1000 nM each time. The IC50 in assay [7] and in assay [8] was 1000 to 10000 nM each time.

With `C[C@H]1CCC/C=C/[C@@H]2C[C@H](OC(=O)/C=C/c3ccccc3F)C[C@H]2[C@H](OC(=O)/C=C/c2ccccc2F)/C=C/C(=O)O1` [Compound 2c, 4,7-O-bis(2-fluorocinnamic acid)acyl BFA], the concentration for half-maximal inhibition (IC50) in assay [1] lay within 1000 to 10000 nM; in assay [2] it was 1000 to 10000 nM; in assay [3] it was 1000 to 10000 nM; in assay [4], 100 to 1000 nM; in assay [5], 1000 to 10000 nM; in assay [6] it was 100 to 1000 nM. The half-maximal inhibitory concentration (IC50) in assay [7] and in assay [8] was 1000 to 10000 nM throughout.

With `C[C@H]1CCC/C=C/[C@@H]2C[C@H](OC(=O)/C=C/c3ccc(F)cc3)C[C@H]2[C@H](O)/C=C/C(=O)O1` [Compound 3a, 7-O-(4-fluorocinnamic acid)acyl BFA], the IC50 in assay [1], in assay [2], in assay [3], in assay [4], in assay [5] and in assay [6] was 100 to 1000 nM in each case. In addition, the concentration for half-maximal inhibition (IC50) in assay [7] and in assay [8] was 1000 to 10000 nM throughout.

As for `C[C@H]1CCC/C=C/[C@@H]2C[C@H](O)C[C@H]2[C@H](OC(=O)/C=C/c2ccc(F)cc2)/C=C/C(=O)O1` [Compound 3b, 4-O-(4-fluorocinnamic acid)acyl BFA], the IC50 in assay [1], in assay [2], in assay [3], in assay [4], in assay [5] and in assay [6] was 100 to 1000 nM throughout. Further, the results for the IC50 in assay [7] and in assay [8] were 1000 to 10000 nM and 100 to 1000 nM, respectively.

As for `C[C@H]1CCC/C=C/[C@@H]2C[C@H](OC(=O)/C=C/c3ccc(F)cc3)C[C@H]2[C@H](OC(=O)/C=C/c2ccc(F)cc2)/C=C/C(=O)O1` [Compound 3c, 4,7-O-bis(4-fluorocinnamic acid)acyl BFA], the half-inhibitory concentration (IC50) fell in the range of 100 to 1000 nM in assay [1]; 1000 to 10000 nM in assay [2]; 1000 to 10000 nM in assay [3]; 1000 to 10000 nM in assay [4]; 100 to 1000 nM in assay [5]; 1000 to 10000 nM in assay [6]. The IC50 in assay [7] and in assay [8] was 1000 to 10000 nM in each case.

For `C[C@H]1CCC/C=C/[C@@H]2C[C@H](OC(=O)/C=C/c3ccccc3Br)C[C@H]2[C@H](O)/C=C/C(=O)O1` [Compound 4a, 7-O-(2-bromocinnamic acid)acyl BFA], the half-maximal inhibitory concentration (IC50) in assay [1], in assay [2], in assay [3], in assay [4], in assay [5] and in assay [6] was 100 to 1000 nM each time. The half-maximal inhibitory concentration (IC50) in assay [7] and in assay [8] was 100 to 1000 nM throughout.

In the case of `C[C@H]1CCC/C=C/[C@@H]2C[C@H](O)C[C@H]2[C@H](OC(=O)/C=C/c2ccccc2Br)/C=C/C(=O)O1` [Compound 4b, 4-O-(2-bromocinnamic acid)acyl BFA], the IC50 in assay [1], in assay [2], in assay [3], in assay [4], in assay [5] and in assay [6] was 100 to 1000 nM each time. The IC50 in assay [7] and in assay [8] was 100 to 1000 nM in each case.

Take `C[C@H]1CCC/C=C/[C@@H]2C[C@H](OC(=O)/C=C/c3ccccc3Br)C[C@H]2[C@H](OC(=O)/C=C/c2ccccc2Br)/C=C/C(=O)O1` [Compound 4c, 4,7-O-bis(2-bromocinnamic acid)acyl BFA]: the IC50 in assay [1] lay in the range of 100 to 1000 nM; in assay [2] it was 1000 to 10000 nM; in assay [3] it was 1000 to 10000 nM; in assay [4] it was 100 to 1000 nM; in assay [5], 1000 to 10000 nM; in assay [6], 1000 to 10000 nM. Moreover, the half-inhibitory concentration (IC50) in assay [7] fell in the range of 1000 to 10000 nM; in assay [8], 100 to 1000 nM.

As for `C[C@H]1CCC/C=C/[C@@H]2C[C@H](OC(=O)/C=C/c3cccc(Cl)c3)C[C@H]2[C@H](O)/C=C/C(=O)O1` [Compound 5a, 7-O-(3-chlorocinnamic acid)acyl BFA], the IC50 in assay [1], in assay [2], in assay [3], in assay [4], in assay [5] and in assay [6] was 100 to 1000 nM throughout. Moreover, the 50% inhibitory concentration (IC50) was in the range of 1000 to 10000 nM in assay [7] and 100 to 1000 nM in assay [8].

Regarding `C[C@H]1CCC/C=C/[C@@H]2C[C@H](O)C[C@H]2[C@H](OC(=O)/C=C/c2cccc(Cl)c2)/C=C/C(=O)O1` [Compound 5b, 4-O-(3-chlorocinnamic acid)acyl BFA], the IC50 in assay [1], in assay [2], in assay [3], in assay [4], in assay [5] and in assay [6] was 100 to 1000 nM throughout. Moreover, the IC50 in assay [7] and in assay [8] was 100 to 1000 nM each time.

As for `C[C@H]1CCC/C=C/[C@@H]2C[C@H](OC(=O)/C=C/c3cccc(Cl)c3)C[C@H]2[C@H](OC(=O)/C=C/c2cccc(Cl)c2)/C=C/C(=O)O1` [Compound 5c, 4,7-O-bis(3-chlorocinnamic acid)acyl BFA], the IC50 lay within 100 to 1000 nM in assay [1]; 1000 to 10000 nM in assay [2]; 1000 to 10000 nM in assay [3]; 100 to 1000 nM in assay [4]; 1000 to 10000 nM in assay [5]; 1000 to 10000 nM in assay [6]. The IC50 in assay [7] lay in the range of 1000 to 10000 nM; in assay [8], 100 to 1000 nM.

As for `Cc1cccc(/C=C/C(=O)O[C@@H]2C[C@H]3[C@H](O)/C=C/C(=O)O[C@@H](C)CCC/C=C/[C@@H]3C2)c1` [Compound 6a, 7-O-(3-methylcinnamic acid)acyl BFA], the concentration for half-maximal inhibition (IC50) was in the range of 100 to 1000 nM in assay [1]; 1000 to 10000 nM in assay [2]; 100 to 1000 nM in assay [3]; 100 to 1000 nM in assay [4]; 100 to 1000 nM in assay [5]; 100 to 1000 nM in assay [6]. The IC50 in assay [7] fell in the range of 100 to 1000 nM; in assay [8], 1000 to 10000 nM.

In the case of `Cc1cccc(/C=C/C(=O)O[C@@H]2/C=C/C(=O)O[C@@H](C)CCC/C=C/[C@@H]3C[C@H](O)C[C@H]32)c1` [Compound 6b, 4-O-(3-methylcinnamic acid)acyl BFA], the IC50 in assay [1], in assay [2], in assay [3], in assay [4], in assay [5] and in assay [6] was 100 to 1000 nM throughout. Further, the IC50 in assay [7] and in assay [8] was 100 to 1000 nM throughout.

Consider `Cc1cccc(/C=C/C(=O)O[C@@H]2C[C@@H]3[C@H](/C=C/CCC[C@H](C)OC(=O)/C=C/[C@H]3OC(=O)/C=C/c3cccc(C)c3)C2)c1` [Compound 6c, 4,7-O-bis(3-methylcinnamic acid)acyl BFA], for which the concentration for half-maximal inhibition (IC50) was 1000 to 10000 nM in assay [1]; 1000 to 10000 nM in assay [2]; 1000 to 10000 nM in assay [3]; 100 to 1000 nM in assay [4]; 1000 to 10000 nM in assay [5]; 1000 to 10000 nM in assay [6]. Besides, the results for the half-maximal inhibitory concentration (IC50) in assay [7] and in assay [8] were 100 to 1000 nM and 1000 to 10000 nM, respectively.

With `Cc1ccc(/C=C/C(=O)O[C@@H]2C[C@H]3[C@H](O)/C=C/C(=O)O[C@@H](C)CCC/C=C/[C@@H]3C2)cc1` [Compound 7a, 7-O-(4-methylcinnamic acid)acyl BFA], the IC50 in assay [1] lay in the range of 100 to 1000 nM; in assay [2], 1000 to 10000 nM; in assay [3], 1000 to 10000 nM; in assay [4], 100 to 1000 nM; in assay [5], 100 to 1000 nM; in assay [6], 1000 to 10000 nM. Further, the half-inhibitory concentration (IC50) in assay [7] and in assay [8] was 1000 to 10000 nM each time.
